Patent US7786258B2, “Methods for inhibiting immune complex formation in a subject” (Trinity Therapeutics, Inc., priority 2004, dated 2010)
Like-named read-outs stand apart in the source and are kept apart here. Positions of bridges follow the written chain, without caps; N, C: chain ends. Residues, ends and D or L forms follow the SMILES beside them. No end group written: not given here.

Experiments:
[1] = system: DBA/1J mice with collagen-induced arthritis
whole human IgG4 = experiment: Inhibition of Fc:Fc interactions: immune complexes on IgG4 coated microwells (Example 3); type: binding; settings: for OD 405 nm: IgG4 coated microwells, positive control (buffer) 0.716
Chain of whole human IgG4 (P01861 99-327 isoform P01861-1 limits assumed): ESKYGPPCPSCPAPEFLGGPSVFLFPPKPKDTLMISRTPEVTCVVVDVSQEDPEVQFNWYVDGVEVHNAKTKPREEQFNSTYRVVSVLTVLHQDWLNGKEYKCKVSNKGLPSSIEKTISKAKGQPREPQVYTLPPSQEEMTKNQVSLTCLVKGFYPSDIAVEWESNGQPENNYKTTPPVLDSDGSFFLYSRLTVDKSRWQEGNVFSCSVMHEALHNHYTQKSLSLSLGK
Source text: Inhibition of Fc:Fc interactions: The Fc region of IgG4 interacts in an Fc to Fc fashion with immune complexed IgG. Purified IgG4 is used with polypeptides of the invention to examine inhibition of immune complex formation and Fc:Fc interactions. Chemical modification of His435, a critical IgG Fc amino acid bound by polypeptides of the invention, is known to inhibit Fc:Fc interactions.

FcγIIa = experiment: Inhibition of FcR binding: reverse ELISA, PAP immune complexes on FcγIIa coated plates (Example 3); settings: plates read at 450 nm, (+) control PAP with no peptide 3.600
Description: (§1) Inhibition of FcR binding: Once the reverse ELISA protocol was established using the C1q assay, the assay was redesigned using FcγIIa, FcγIIb and FcγIII in place of C1q. Highly purified FcγIIa, FcγIIb and FcγIII were immunoadsorbed onto plastic microwells. After optimizing the FcγR reverse ELISA system, simple competitive inhibition experiments using polypeptides of the invention were conducted to investigate their ability to inhibit binding of immune complexes to purified FcγR.
(§2) Falcon microtiter plates were coated with 1:10 dilutions of highly purified FcγIIa, FcγIIb and FcγIII and incubated for 24 hours. […] Equal amounts (50 μl) of peptide and 1:10 PAP immune complexes were pre-incubated for one hour and then incubated on the FcR coated plates for one hour. […] Stop solution (10 μl) was added and the plates were read at 450 nm.

FcγIIb = experiment: Inhibition of FcR binding: reverse ELISA, PAP immune complexes on FcγIIb coated plates (Example 3); settings: plates read at 450 nm, (+) control PAP with no peptide 3.600
Description: as §1, §2

FcγIII = experiment: Inhibition of FcR binding: reverse ELISA, PAP immune complexes on FcγIII coated plates (Example 3); settings: plates read at 450 nm, (+) control PAP with no peptide 3.600
Description: as §1, §2

polyclonal IgM RF = experiment: Inhibition of RF binding: PAP immune complexes on rheumatoid factor coated plates (Example 3); settings: for OD 405 nm: PAP pre-incubated 30 minutes with peptides or RF, (+) control PAP with no peptide 0.753; for inhibition of RF binding to immune complexes, in words: Table 3
Description: Inhibition of RF binding: The assay to test inhibition of RF binding to the IgG Fc CH2-CH3 clefts was very similar to the C1q-CIC EIA assay described above, with the exception that polyclonal IgM RF was coated onto the microwells instead of C1q. […] High titer, RF positive sera were purchased from Research Diagnostics (Flanders, N.J.).
A 1:10 dilution of 200 μl of 200 I.U. rheumatoid factor (RF) (+) control (positive standard provided by Research Diagnostics was coated onto Falcon microtiter plates and incubated for 24 hours. The plates were blocked with 1:5 BSA blocking buffer (Alpha Diagnostic International) for one hour. Freshly prepared 1:10PAP (antigen:antibody) immune complexes were pre-incubated for 30 minutes with peptides or RF (positive control containing only buffer). After washing, plates were incubated with ABTS substrate (Research Diagnostics) for 30 minutes and then read at 405 nm. Results are shown in Table 3.

histone = experiment: Inhibition of histone binding: PAP immune complexes on histone-coated plates (Example 3); settings: rabbit PAP pre-incubated with peptides or histone one hour; (+) control buffer only 1.268
Description: Inhibition of histone binding: The binding of immune complexes to the kidneys in lupus nephritis appears to involve (a) the binding of histones to the GBM, and then (b) the binding of immune complexes (through the IgG Fc CH2-CH3 cleft) to the bound histones. Experiments similar to those described above were used to inhibit binding of purified histone to IgG Fc binding. Histone (Sigma) was diluted 1:10 in coating buffer (Alpha Diagnostic International) and incubated on Falcon microtiter plates for 24 hours. Plates were blocked with 5× BSA blocking solution (Alpha Diagnostic International) for 24 hours. Freshly prepared 1:10 rabbit PAP (Sigma) was pre-incubated with either peptides or histone for one hour, and 100 μl of the mixture was added to the histone-coated plates for one hour. Plates were incubated with ABTS substrate (Quidel Corp.) for 45 minutes, and OD 405 was read.

MBP = settings: rabbit PAP pre-incubated with peptide or MBP 30 minutes; (+) control buffer only 1.033
Description: Inhibition of MBP binding: MBP (Sigma) was diluted 1:10 with coating buffer (Alpha Diagnostic International) and incubated for 24 hours on Falcon microtiter plates. Plates were washed and then blocked with 5× BSA blocking buffer (Alpha Diagnostic International) for 24 hours. Rabbit 1:10 PAP immune complexes were pre-incubated with equal amounts of peptide or MBP for 30 minutes. One hundred μl of PAP immune complexes/peptide or PAP/MBP was then added to the MBP-coated plates and incubated for one hour. The plates were washed and incubated with TMB substrate (Alpha Diagnostic International) for 30 minutes. After adding stop solution (Alpha Diagnostic International), the plates were read at 450 nm.
Further experiments were conducted to determine the effect of SEQ ID NO:47 (also referred to as NB-406) on binding of MBP to IgG PAP immune complexes.

human monomeric IgG = experiment: Inhibition of rheumatoid factor binding to monomeric IgG (Example 4); settings: peptides pre-incubated 30 minutes with monomeric IgG, then 200 I.U. RF; (+) control buffer only 1.376
Description: The ability of the peptides to inhibit the binding of rheumatoid factor to monomeric IgG was tested. Binding to monomeric IgG may be important, as it may increase the half-life of particular peptides and allow them to be more bioactive.
A standard rheumatoid factor commercial test was used (Research Diagnostics) with the following modifications: 100 μl of test peptides were pre-incubated for 30 minutes with human monomeric IgG (Research Diagnostics). Plates were washed and incubated with 200 I.U. rheumatoid factor positive control supplied with the test kit. The rest of the test was performed according to the manufacturer's instructions.

C1q = experiment: Inhibition of C1q binding: reverse ELISA, PAP immune complexes on C1q coated plates (Example 3); parameters: species or system human; settings: for OD 405 nm: peptide or C1q pre-incubated with PAP 30 minutes, (+) control PAP with no peptide 0.467, lower OD = more inhibition
Source text: For this reason, a “reverse ELISA” technique is used to assess binding of the Fc region to ligands that bind to immune complexed IgG Fc. In a reverse ELISA, the enzyme (e.g., HRP) is not covalently conjugated to the Fc portion of the secondary antibody. Rather, a preformed immune complex of peroxidase-rabbit (or mouse) anti-peroxidase IgG (“PAP” complex) is used. […] In the absence of competitor, PAP complexes bind to the immobilized ligand and the reaction between HRP and its substrate produces a signal. This signal is reduced by polypeptides and compounds of the invention that inhibit PAP binding to the immobilized ligand.
Inhibition of C1q binding: Twenty μl of peroxidase (P) (Sigma) was diluted in 2 ml of sample diluent (Quidel Corp, San Diego, Calif.). Twenty μl of anti-peroxidase (AP) (Sigma) was diluted in 2 ml of sample diluent, and 20 μl of the diluted AP was added to the diluted P (1:100 antigen:antibody ratio) to form peroxidase-anti-peroxidase (PAP) complexes. The extreme antigen excess guaranteed that any single antibody would be bound to two peroxidase molecules and larger immune complexes would not form, thus preventing the bridging of larger immune complexes to multimeric C1q (heximeric). One hundred μl of peptide or C1q was pre-incubated with freshly prepared PAP for 30 minutes, added to C1q coated plates (Quidel Corp.), and incubated for one hour. After washing, ABTS substrate (Quidel Corp.) was added to the plates and incubated for 30 minutes, and the plates were read at 405 nm. All peptides were cyclized by forming a disulfide bond between the two cysteine residues.

[2] = 10 mg/kg, versus diseased control

| Compound | OD 405 nm (whole human IgG4) | PAP immune complex binding (OD at 450 nm) (FcγIIa) | OD at 450 nm (PAP binding to FcγIIb) (FcγIIb) | OD 450 nm (PAP immune complex binding) (FcγIII) | OD 405 nm (polyclonal IgM RF) | OD 405 nm (histone) | OD 405 nm (MBP) | OD 405 nm (human monomeric IgG) | OD 405 nm (C1q) | also measured |
| --- | --- | --- | --- | --- | --- | --- | --- | --- | --- | --- |
| CC(C)C[C@@H]1NC(=O)[C@H](Cc2c[nH]cn2)NC(=O)[C@H](CCCNC(=N)N)NC(=O)[C@H](C)NC(=O)[C@@H](NC(=O)[C@@H]2CCCN2C(=O)[C@@H]2CCCN2C(=O)[C@H](C)N)CSSC[C@@H](C(=O)N[C@H](C(=O)O)[C@@H](C)O)NC(=O)[C@H](Cc2c[nH]c3ccccc23)NC(=O)[C@H](C(C)C)NC(=O)[C@H](CC(C)C)NC(=O)[C@H](CCC(=O)O)NC(=O)CNC1=O (HELM PEPTIDE1{A.P.P.C.A.R.H.L.G.E.L.V.W.C.T}$PEPTIDE1,PEPTIDE1,4:R3-14:R3$$$V2.0) |  |  |  |  |  |  |  |  |  | adverse reactions at injection sites ([1]; mouse, in vivo, sc): no adverse reactions were observed |
| CC(C)C[C@@H]1NC(=O)[C@H](Cc2c[nH]cn2)NC(=O)[C@H](Cc2c[nH]c3ccccc23)NC(=O)[C@H](C)NC(=O)[C@@H](NC(=O)[C@@H](N)CC(=O)O)CSSC[C@@H](C(=O)N[C@H](C(=O)O)[C@@H](C)O)NC(=O)[C@H](Cc2c[nH]c3ccccc23)NC(=O)[C@H](C(C)C)NC(=O)[C@H](CC(C)C)NC(=O)[C@H](CCC(=O)O)NC(=O)CNC1=O |  |  |  |  |  |  |  |  |  | adverse reactions at injection sites ([1]; daily subcutaneous injections day 32 to day 47, all doses, injection sites examined daily): no adverse reactions were observed; maximum inhibition of arthritic symptoms ([1]; mouse, in vivo): 37% |
| APPDCARHLGELVWCT (Synthetically generated polypeptide) | 0.107 |  |  |  |  |  |  |  |  |  |
| DCAWHLGELAACT (disulfide 2-12 (inferred)) [peptide substituted with alanine at positions 10 and 11] | 0.557 | 1.484 | 1.067 | 1.345 | 0.622 | 0.729 | 0.706 | 1.397 |  |  |
| DCAAHLGELAACT (disulfide 2-12 (inferred)) |  | 2.434 | 2.263 | 2.413 |  |  |  | 1.421 | 0.458 | inhibition of immune complex binding to solid phase C1q, in words (C1q; Table 1): not significantly different from the positive control |
| DCARHLGELVWCT (disulfide 2-12 (inferred)) | 0.096 | 2.539 | 1.952 | 2.529 | 0.109 | 0.363 | 0.473 | 1.231 | 0.193 | inhibition of RF binding to immune complexes, in words (polyclonal IgM RF): very effective inhibition; inhibition of Fc:Fc binding, in words (whole human IgG4; text on Table 8): strongest inhibition |
| PCARHLGELVWCT (disulfide 2-12 (inferred)) | 0.129 | 1.149 | 1.211 | 1.602 | 0.106 | 0.444 | 0.489 | 1.323 | 0.205 | inhibition of RF binding to immune complexes, in words (polyclonal IgM RF): very effective inhibition |
| REMICADE: REMICADE® was obtained from Centocor (Malvern, Pa.) |  |  |  |  |  |  |  |  |  | effect on arthritic symptoms, in words ([1]; 10 mg/kg): no effect; effect on histological symptoms of arthritis, in words ([1]; 10 mg/kg): no effect; Arthritic Index ([1]; 10 mg/kg subcutaneously daily, average over final three days of treatment, diseased control 3.8): 3.8; Histological Evaluation ([1]; 10 mg/kg, hindlimbs, day 48, diseased control 45): 45; Arthritic Index Percent Change [1, 2]: 0%; Histological Evaluation Percent Change [1, 2]: 0%; adverse reactions at injection sites ([1]; mouse, in vivo, sc): no adverse reactions were observed |
| RCARHLGELVWCT (disulfide 2-12 (inferred)) | 0.191 | 3.398 | 3.284 | 3.502 | 0.152 | 0.359 | 0.569 | 1.314 | 0.247 |  |
